Source: patent publication US20130039856A1, “Products and Methods” (priority 2010, published 2013)

Experiments:
C. elegans [1] = assay: C. elegans lifespan analysis on E. coli plates; assay type: in vivo, Caenorhabditis elegans; settings: for effect of supplementation on extended lifespan of C. elegans on ubiG mutant bacteria: Q-deficient ubiG bacteria; for effect of supplementation on extended lifespan of C. elegans on ubiG mutant bacteria / effect of supplementation on lifespan of C. elegans on control HT115(DE3) strain: test for toxic effect of supplement; for effect of supplementation on lifespan of C. elegans on control HT115(DE3) strain: control bacteria; for increase in C. elegans lifespan: vs control; for effect of media supplementation on C. elegans lifespan on aroD mutant bacteria: supplement 40 μg/ml (PABA 0.29 mM), glp-4(bn1), 25° C.
Procedure: Nematode growth media was prepared as described using 2.5 g/l soy peptone (Sigma P6713). Where indicated plates were supplemented with shikimic acid (40 μg/ml), I-phenylalanine, I-tryptophan and I-tyrosine (all at 40 μg/ml), 4-amino benzoic acid (PABA 40 μg/ml=0.29 mM), sodium folate (0.29 mM and 0.58 mM folic acid dissolved in NaOH). For the kanamycin treatment of bacteria, 80 μl of 10 mM kanamycin was added after 24 hours of bacterial growth as described. All compounds were from Sigma-Aldrich.
For all lifespans and unless indicated differently in Supplementary Table 1, survival analyses were performed by the following method: Eggs were prepared from bleaching adults to remove all microbes, and then placed onto plates containing aroD mutant bacteria. Animals were raised at 15° C. until adulthood due to the temperature sensitivity of mutant phenotypes. Gravid adulthoods were used to lay eggs onto fresh aroD mutant plates. At L3/L4 these animals were transferred to 25° C. and larvae of equivalent stage were put onto at least 5 plates of 25 worms for each condition. Animals were transferred to fresh plates after 7 and 14 days and scored for survival every 2-3 days. Lifespan data was analysed by JMP statistical software (SAS). Where relevant, statistical significance was determined using the Log-Rank and Wilcoxon tests of fitting to the Kaplan-Meier survival model.

E. coli [2] = assay: Effect on E. coli growth (absorbance, relative cell numbers); assay type: cell-based
Procedure: The inventors investigated the effect of SMX on E. coli growth. Under the conditions that caused an increase in C. elegans lifespan, they scraped the E. coli from the agar plates used to culture worms after two days of growth and used absorbance to estimate relative cell numbers. 128 μg/ml SMX caused a mean effect of reducing E. coli numbers by approx 11% (+/−5%, standard error, n=4). There was no effect on growth in liquid culture with the same nutrient conditions as used for lifespan analysis (FIG. 10).

C. elegans [3] = assay: HPLC/MS folate levels in worms; assay type: in vivo; settings: worms raised on OP50 bacteria treated with SMX, duplicate experiments, FIG. 9D
Source text: Similar techniques were used to quantify levels of folates in worms, although proteinase K digestion of the worms was used to get a good extraction of folates. The most abundant folate species in C. elegans using this method of detection was 5-methyl tetrahydrofolate pentaglutamate. Worms raised on aroD bacteria had 25 to 30% less of this folate species than worms on the control bacteria (in duplicate experiments, FIG. 9C). Worms raised OP50 bacteria treated with SMX had approximately 75% less folate than worms raised on the control bacteria (in duplicate experiments, FIG. 9D).

E. coli [4] = assay: HPLC/MS folate levels in bacteria; assay type: cell-based; settings: SMX-treated OP50 bacteria, duplicate experiments, FIG. 9B
Source text: Both the aroD mutation and treatment with SMX inhibit folate synthesis in bacteria. […] This folate species is approximately three fold less abundant in the aroD mutant compared to the control strain (in duplicate experiments, FIG. 9A) and at least 10 times less abundant in the SMX-treated OP50 bacteria compared to the untreated control (in duplicate experiments, FIG. 9B).

one species of fish = settings: cited from earlier work
yeast = settings: cited from earlier work
flies = settings: cited from earlier work
worms = settings: cited from earlier work
humans aged 60 to 81 = settings: cited from earlier work

For `Nc1nc2ncc(CNc3ccc(C(=O)N[C@@H](CCC(=O)O)C(=O)O)cc3)nc2c(=O)[nH]1` [folate, folic acid], the “effect of supplementation on extended lifespan of C. elegans on ubiG mutant bacteria” value (C. elegans [1]) was “no effect”, the “effect of adding folic acid to SMX plates on C. elegans lifespan” value (C. elegans [1]; SMX plates, FIG. 8) was “reverses the effect of SMX” and the “effect of supplementation on lifespan of C. elegans on control HT115(DE3) strain” value (C. elegans [1]) was “no effect”. For the same compound, the “effect of folate supplementation on C. elegans lifespan on aroD mutant” value (C. elegans [1]; doubled folate concentration (0.58 mM, 2× folate) vs 1× folate, difference not statistically significant) was “slightly shorter” and the “effect of folate supplementation on C. elegans lifespan extension on aroD mutant” value (C. elegans [1]; same molar concentration as PABA (0.29 mM, 1× folate)) was “reduced the C. elegans lifespan extension substantially but not completely”.

With `Cc1cc(NS(=O)(=O)c2ccc(N)cc2)no1` [SMX, sulfamethoxazole] the “reduction of E. coli numbers” value (E. coli [2]; 128 μg/ml SMX, agar plates, two days of growth, absorbance, +/−5% standard error, n=4) was “approx 11%”, the “effect on E. coli growth in liquid culture” value (E. coli [2]; same nutrient conditions as lifespan analysis, FIG. 10) was “no effect” and the “less folate (5-methyl tetrahydrofolate pentaglutamate) in worms vs worms on control bacteria” value (C. elegans [3]) was “approximately 75%”. For the same compound, the “increase in C. elegans lifespan” value (C. elegans [1]; 16 μg/ml SMX treatment of the bacteria) was “around 24%”, the “increase in C. elegans lifespan” value (C. elegans [1]; 64 μg/ml SMX, not significantly different to 16 μg/ml) was 27% and the “increase in C. elegans lifespan” value (C. elegans [1]; 128 μg/ml SMX, significantly different to 16 μg/ml (p<0.05)) was 33%. For the same compound, the “effect on C. elegans lifespan” value (C. elegans [1]; inhibition of the bacterial folate pathway, FIG. 6) was “lifespan can be increased” and the “formyl tetrahydrofolate triglutamate abundance, decrease vs untreated control” value (E. coli [4]) was “at least 10 times”.

In the case of `Oc1ccc(C=Cc2cc(O)cc(O)c2)cc1` [resveratrol], the extension of lifespan (one species of fish) is given as roughly 60%, the extension of lifespan (yeast) is given as “up to 60%” and the extension of lifespan (flies) is given as “up to 30%”. The extension of lifespan (worms) was “up to 30%”.

In the case of `O=C(O)C1=C[C@@H](O)[C@@H](O)[C@H](O)C1` [shikimic acid], the “effect of media supplementation on C. elegans lifespan on aroD mutant bacteria” value (“effect of media supplementation” for short) (C. elegans [1]) was “revert to normal”.

For `N[C@@H](Cc1c[nH]c2ccccc12)C(=O)O` [tryptophan], the “effect of media supplementation” value (C. elegans [1]) was “small negative effect”.

For `CC(C)(N)C(=O)N[C@H](COCc1ccccc1)C(=O)N1CCC2(CC1)CN(S(C)(=O)=O)c1ccccc12` [MK-677], the “muscle mass lost due to ageing restored” value (humans aged 60 to 81) is given as 20%.

For `Nc1ccc(C(=O)O)cc1` [PABA, para-aminobenzoic acid], the “effect of supplementation on extended lifespan of C. elegans on ubiG mutant bacteria” value (C. elegans [1]) was “no effect”, the “effect of supplementation on lifespan of C. elegans on control HT115(DE3) strain” value (C. elegans [1]) was “no effect” and the “effect of media supplementation” value (C. elegans [1]) was “reversed the lifespan increase completely”.
